Article PMC4792161, “A novel pyrazole derivative protects from ovariectomy-induced osteoporosis through the inhibition of NADPH oxidase” (Scientific Reports, 2016)
Counter-ions that a name gives are not always drawn.

Assays:
[1] = target: xanthine oxidase (Bos taurus, UniProt P80457); assay: Xanthine oxidase assay (lucigenin); assay type: biochemical
Protocol: Xanthine oxidase activity was measured by lucigenin. Reaction mixtures contained 0.1 mU xanthine oxidase, 0.25 mM Xanthine, and 0.4 mM lucigenin with the indicated inhibitor (0–20 μM). Luminescence measured over 30 min at 37 °C with luminometor (DTX800, Beckman coulter).

[2] = test system: OVX-induced osteoporotic ddY mice; assay: Bone strength (failure load, three-point bending test) in OVX mice; assay type: in vivo; conditions: oral once daily 28 days; risedronate 2.5 mg/kg
[3] = Body weight changes in OVX mice; assay type: in vivo, ddY mice; conditions: risedronate 2.5 mg/kg; Ewha-18278 2.5, 5, 10 and 20 mg/kg; 28 days
Protocol: The study was reviewed and approved by the Institutional Animal Care and Use Committee (IACUC) of Center for Laboratory Animal Sciences, Ewha Industry-University Cooperation Foundation, Ewha Womans University. Experimental methods were carried out in accordance with the approved ethic guidelines in Ewha Industry-University Cooperation Foundation, Ewha Womans University. Beginning 4 weeks after OVX, the female ddY mice received 2.5, 5, 10, or 20 mg/kg of #18–278, 2.5 mg/kg of risedronate, or vehicle once daily for 28 days. The Changes in body weight, bone weight, bone mineral density (BMD), failure load (FL), bone calcium (Ca), inorganic phosphorus (P) contents, histology and histomorphology were monitored. Serum osteocalcin and bone specific alkaline phosphatase (bALP) were monitored in mice receiving Ewha-18278.
R esi dronat e 2. 5mg/kg t reated mi ce […]
D ay after administration (d)
Supplementary Figure S7. Body weight changes in OVX mice. We selected eight mice per group showing more increases of body weights as compared with sham-operated mice and regarded as good OVX animals at four weeks after OVX surgery, consequently, significant increases of body weights were detected in all OVX groups as compared with sham control mice throughout 28 days of […]
mice, in the present study. Values are expressed mean ± S.D. of eight mice. Risedronate sodium was administered at 2.5mg/kg levels. […]

[4] = test system: OVX-induced osteoporotic ddY mice; assay: Tibia weights (wet, dry, ash) in OVX mice; assay type: in vivo
Protocol: The right sides of femur and tibia were weighed and then dried at 120 °C for 8 hours. The dried bones were carbonized at 800 °C for 6 hours in a furnace (Daihan Scientific, Korea) to detect ash absolute weights, after measurement of BMD and failure load. To reduce the individual body weight differences, the relative weight (%) was calculated using body weight at sacrifice and absolute weight as [Relative bone weights = (Absolute bone weight/Body weight at sacrifice) ×100]. In addition, ashed bones were ground and dissolved in nitric acid. In diluted solution, Ca and P contents were calculated (mg/g bone) using an orthocresolphthalein complex and enzyme methods, respectively. The Ca/P ratio (%) was calculated as (Tibia Ca contents/Tibia P contents) ×100.
Supplementary Table S4. Tibia Weights in OVX Mice Values are expressed mean ± S.D. of eight mice Risedronate sodium was administered at 2.5mg/kg levels a p<0.01 as compared with sham control […]
material OVX = ovariectomy
Groups Tibia absolute weights (g) Tibia relative weights (% of body weight)Wet Dry Ash Wet Dry Ash

[5] = Pharmacokinetics after IV and oral administration to rats; assay type: in vivo
Protocol: Supplementary Table S1. Pharmacokinetic parameters of Ewha-89403 following IV and oral administration at the doses of 1 mg/kg and 10 mg/kg, respectively, to rats (n=4-5) PK Parameters IV Injection Oral Administration
Absolute Bioavailability (BA) = 4.3 %
Supplementary Table S2. Pharmacokinetic parameters of Ewha-18278 following IV and oral administration at the doses of 2 mg/kg and 20 mg/kg, respectively, to rats (n=5-6) […]
Absolute Bioavailability (BA) = 63.8 %

[6] = 2.5 mg/kg oral once daily 28 days
[7] = 5 mg/kg oral once daily 28 days
[8] = 10 mg/kg oral once daily 28 days
[9] = 20 mg/kg oral once daily 28 days

Chain of xanthine oxidase (P80457 2-1332): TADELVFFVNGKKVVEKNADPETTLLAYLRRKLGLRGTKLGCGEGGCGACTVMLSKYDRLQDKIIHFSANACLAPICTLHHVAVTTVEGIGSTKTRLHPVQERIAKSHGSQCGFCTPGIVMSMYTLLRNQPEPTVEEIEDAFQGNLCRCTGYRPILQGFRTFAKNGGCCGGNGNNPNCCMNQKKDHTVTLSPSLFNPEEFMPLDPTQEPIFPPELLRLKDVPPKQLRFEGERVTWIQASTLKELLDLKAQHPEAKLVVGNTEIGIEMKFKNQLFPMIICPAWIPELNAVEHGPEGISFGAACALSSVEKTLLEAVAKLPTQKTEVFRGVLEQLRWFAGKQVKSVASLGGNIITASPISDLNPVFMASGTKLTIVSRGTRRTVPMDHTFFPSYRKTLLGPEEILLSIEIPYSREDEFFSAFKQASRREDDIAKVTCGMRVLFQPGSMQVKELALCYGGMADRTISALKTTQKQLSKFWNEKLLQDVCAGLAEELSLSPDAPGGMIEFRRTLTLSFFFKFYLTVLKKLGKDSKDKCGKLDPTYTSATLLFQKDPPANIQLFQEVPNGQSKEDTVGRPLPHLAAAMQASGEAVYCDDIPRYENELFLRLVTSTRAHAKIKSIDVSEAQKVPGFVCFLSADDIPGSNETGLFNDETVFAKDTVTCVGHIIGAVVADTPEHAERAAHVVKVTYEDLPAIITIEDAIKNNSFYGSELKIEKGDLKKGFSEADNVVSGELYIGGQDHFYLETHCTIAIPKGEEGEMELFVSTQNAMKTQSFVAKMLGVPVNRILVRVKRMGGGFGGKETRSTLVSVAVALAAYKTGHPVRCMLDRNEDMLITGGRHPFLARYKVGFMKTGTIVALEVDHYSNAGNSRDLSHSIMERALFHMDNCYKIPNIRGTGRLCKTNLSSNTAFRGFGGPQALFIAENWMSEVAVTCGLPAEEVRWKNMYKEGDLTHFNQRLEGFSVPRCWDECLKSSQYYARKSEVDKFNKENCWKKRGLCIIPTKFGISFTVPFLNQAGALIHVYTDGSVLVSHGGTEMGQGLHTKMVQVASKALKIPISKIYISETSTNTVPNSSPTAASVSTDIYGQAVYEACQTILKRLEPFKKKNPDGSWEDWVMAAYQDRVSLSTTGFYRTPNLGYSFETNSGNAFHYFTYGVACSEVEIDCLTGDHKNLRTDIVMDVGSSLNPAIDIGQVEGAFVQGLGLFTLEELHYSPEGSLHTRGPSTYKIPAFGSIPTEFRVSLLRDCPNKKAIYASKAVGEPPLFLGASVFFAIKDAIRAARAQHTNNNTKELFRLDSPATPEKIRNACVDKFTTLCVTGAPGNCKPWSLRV

CCCc1c(-c2ccccc2)nn(-c2ccccn2)c1O [Ewha-18278, 3-phenyl-1-(pyridin-2-yl)-4-propyl-1H-5-hydroxypyrazole HCl]
inhibitory activity on xanthine oxidase [1]: no inhibitory activities
bone strength (FL) of femur and tibia compared to control OVX [2]: enhanced
body weights as compared with OVX control mice [3]: no meaningful changes
Tibia absolute weights, Ash [4, 6]: 0.027 g
Tibia absolute weights, Dry [4, 6]: 0.051 g
Tibia absolute weights, Wet [4, 6]: 0.070 g
Tibia absolute weights, Ash [4, 7]: 0.030 g
Tibia absolute weights, Dry [4, 7]: 0.051 g
Tibia absolute weights, Wet [4, 7]: 0.071 g
Tibia absolute weights, Ash [4, 8]: 0.030 g
Tibia absolute weights, Dry [4, 8]: 0.052 g
Tibia absolute weights, Wet [4, 8]: 0.071 g
Tibia absolute weights, Ash [4, 9]: 0.032 g
Tibia absolute weights, Dry [4, 9]: 0.052 g
Tibia absolute weights, Wet [4, 9]: 0.071 g
Clt ([5]; IV 2 mg/kg): 250 ± 72.3 mL/h
oral availability ([5]; compared to Ewha-89403): high oral availability
AUC(0-inf) ([5]; rat, in vivo, IV 2 mg/kg): 2150 ± 693 ng·h/mL
AUC(0-t) ([5]; rat, in vivo, IV 2 mg/kg): 1770 ± 697 ng·h/mL
C0 ([5]; rat, in vivo, IV 2 mg/kg): 7480 ± 3420 ng/mL
Vd ([5]; rat, in vivo, IV 2 mg/kg): 1.52 ± 1.17 L
half-life ([5]; rat, in vivo, IV 2 mg/kg): 4.07 ± 2.28 h
bioavailability ([5]; rat, in vivo, IV 2 mg/kg and oral 20 mg/kg, read-out: Absolute Bioavailability (BA)): 63.8%
AUC(0-inf) ([5]; rat, in vivo, oral 20 mg/kg): 14400 ± 8170 ng·h/mL
AUC(0-t) ([5]; rat, in vivo, oral 20 mg/kg): 11300 ± 6470 ng·h/mL
Cmax ([5]; rat, in vivo, oral 20 mg/kg): 5010 ± 2510 ng/mL
Tmax ([5]; rat, in vivo, oral 20 mg/kg): 0.233 ± 0.171 h
half-life ([5]; rat, in vivo, oral 20 mg/kg): 14.4 ± 3.73 h
